From ChEMBL document CHEMBL2311532, “Identification of benzofuran central cores for the inhibition of leukotriene A(4) hydrolase” (Bioorg Med Chem Lett, 2013) come the findings set out here.

The target in data set [1] is T1, Leukotriene A-4 hydrolase (Homo sapiens, UniProt P09960).
T1 sequence (P09960 whole entry): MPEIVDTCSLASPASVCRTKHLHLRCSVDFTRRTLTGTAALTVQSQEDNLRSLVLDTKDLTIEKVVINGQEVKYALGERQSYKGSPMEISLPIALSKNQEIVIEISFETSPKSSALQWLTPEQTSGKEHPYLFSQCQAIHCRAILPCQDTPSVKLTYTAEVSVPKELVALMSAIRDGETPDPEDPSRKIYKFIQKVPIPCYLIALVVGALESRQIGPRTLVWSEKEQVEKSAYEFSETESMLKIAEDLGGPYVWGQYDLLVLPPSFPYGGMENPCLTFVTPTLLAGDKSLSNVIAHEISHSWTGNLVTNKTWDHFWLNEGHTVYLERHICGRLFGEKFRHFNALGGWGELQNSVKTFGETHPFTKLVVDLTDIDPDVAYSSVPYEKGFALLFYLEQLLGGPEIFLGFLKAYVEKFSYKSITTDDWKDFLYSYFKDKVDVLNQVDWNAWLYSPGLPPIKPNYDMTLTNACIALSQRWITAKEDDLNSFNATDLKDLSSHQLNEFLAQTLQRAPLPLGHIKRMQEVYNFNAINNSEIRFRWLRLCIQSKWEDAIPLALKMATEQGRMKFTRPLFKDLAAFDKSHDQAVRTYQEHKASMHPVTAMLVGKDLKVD
Put plainly: Inhibition of recombinant human LTA4H expressed in Sf9 cells using LTA4 as substrate incubated for 10 mins prior to substrate addition measured after 10 to 30 mins by enzyme immunoassay.

The target of data set [2] is T2, Leukotriene A-4 hydrolase (Mus musculus, UniProt P24527).
T2 sequence (P24527 whole entry): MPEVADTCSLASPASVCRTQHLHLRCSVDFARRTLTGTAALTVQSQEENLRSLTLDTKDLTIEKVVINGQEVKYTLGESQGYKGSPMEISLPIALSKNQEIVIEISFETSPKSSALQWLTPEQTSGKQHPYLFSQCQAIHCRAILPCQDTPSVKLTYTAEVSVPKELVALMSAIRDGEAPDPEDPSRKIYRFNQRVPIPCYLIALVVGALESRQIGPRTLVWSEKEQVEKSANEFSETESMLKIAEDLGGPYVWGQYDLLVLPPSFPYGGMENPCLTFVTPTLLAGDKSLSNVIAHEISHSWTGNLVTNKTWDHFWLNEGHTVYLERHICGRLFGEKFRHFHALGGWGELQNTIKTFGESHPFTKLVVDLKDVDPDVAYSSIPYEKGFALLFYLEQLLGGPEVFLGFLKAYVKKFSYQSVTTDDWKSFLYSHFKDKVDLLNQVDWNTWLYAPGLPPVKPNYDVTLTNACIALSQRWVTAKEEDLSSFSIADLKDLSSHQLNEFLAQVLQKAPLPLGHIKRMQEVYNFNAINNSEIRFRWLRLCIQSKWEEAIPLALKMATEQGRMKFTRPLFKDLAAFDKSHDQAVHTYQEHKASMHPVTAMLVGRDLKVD
Kind of data set: Inhibition of LTA4H in CD1 mouse whole blood assessed as decrease in calcium ionophore-stimulated LTB4 production incubated for 15 mins prior to calcium ionophore challenge measured after 10 to 30 mins by enzyme immunoassay.

Data set [3] is described as follows: Clearance in Sprague-Dawley rat at 3 mg/kg, iv and 10 mg/kg, po. Type of data set: ADME, organism-based. Particulars: in vivo.
The test system of data set [4] is Mus musculus. Put plainly: Inhibition of LTA4H in po dosed Balb/c mouse assessed as concentration required to decrease calcium ionophore-stimulated LTB4 production in blood administered for 4 hrs prior to calcium ionophore challenge measured after 10 to 30 mins by enzyme immunoassay. In kind it is functional, organism-based.
A short description of data set [5]: Half life in Sprague-Dawley rat at 3 mg/kg, iv and 10 mg/kg, po. Type of data set: ADME, organism-based. Particulars: in vivo.
Data set [6] can be described thus: Oral bioavailability in Sprague-Dawley rat at 10 mg/kg. In kind it is ADME, organism-based. As to conditions: in vivo.
The test system of data set [7] is Mus musculus. Put plainly: Inhibition of LTA4H in po dosed Balb/c mouse assessed as decrease in calcium ionophore-stimulated LTB4 production in blood administered for 4 hrs prior to calcium ionophore challenge measured after 10 to 30 mins by enzyme immunoassay. Type of data set: functional.
Data set [8] is described as follows: Volume of distribution at steady state in Sprague-Dawley rat at 3 mg/kg, iv and 10 mg/kg, po. In kind it is ADME, organism-based. Particulars: in vivo, read-out: Vdss.
Data set [9] deals with T1, Leukotriene A-4 hydrolase. Kind of data set: Inhibition of LTA4H in human whole blood assessed as decrease in LTB4 production.

For the molecule `CC(=O)N1CC2CC1CN2Cc1coc2cc(Oc3nc4cnccc4s3)ccc12` (centres undefined), the IC50 (commonly the concentration needed to halve the response being measured) in data set [1] was determined as 340 nM.
As to `CC(=O)N1CC2CC1CN2Cc1coc2cc(Oc3nc4cccnc4s3)ccc12` (centres undefined), the concentration for half-maximal inhibition (IC50) in data set [1] came out at 300 nM.
Take `CC(=O)N[C@H]1C[C@H]2CC[C@@H](C1)N2Cc1coc2cc(Oc3nc4ncccc4s3)ccc12`: the results for the concentration for half-maximal inhibition (IC50) in data set [1] and in [2] were 1.6 nM and 9.8 nM, respectively.
Consider `c1ccc2sc(Oc3ccc4cc(CN5CCCCC5)oc4c3)nc2c1`, for which the half-maximal inhibitory concentration (IC50) in [1] was determined as 430 nM.
Regarding `c1ccc2sc(Oc3ccc4c(CN5CCOCC5)coc4c3)nc2c1`, the concentration for half-maximal inhibition (IC50) in [1] worked out at 140 nM; in data set [2] it was 1120 nM.
`CC(=O)N1CC2CC1CN2Cc1cc2cc(Oc3nc4cnccc4s3)ccc2o1` (centres undefined): the IC50 in [1] was determined as 340 nM.
For the molecule `O=C(O)C1CCN(Cc2coc3cc(Oc4nc5ncccc5s4)ccc23)CC1`, the figures for the IC50 in data set [1] and in data set [2] were 8.3 nM and 280 nM, respectively.
For the molecule `O=C1CCCN1C1CCN(CCOc2ccc(Oc3nc4ccccc4s3)cc2)CC1`, the clearance in [3] is 8.33 mL/min/kg. Further, the concentration giving a half-maximal response (EC50) (commonly the concentration giving half of the maximal effect) in the data set on Mus musculus [4] amounted to 72 nM. Also, in [5], the half-life (as a rule, how long it takes for the measured level to halve) was 0.9 h. In addition, the bioavailability (commonly the share of a dose that reaches the circulation, judged against a reference dose that is usually intravenous) in data set [6] is 29%. For the same molecule, the 50% effective dose (ED50) (commonly the dose that gives a 50% effect, or the effect in half of the subjects) with Mus musculus [7] came to 10 mg/kg. Further, in data set [8], the Vd stood at 1.1 L/kg.
In the case of `c1ccc2sc(Oc3ccc4c(CN5CCCCC5)coc4c3)nc2c1`, the IC50 in data set [1] stood at 67 nM; in [2] it was 420 nM.
Consider `CC(=O)N1CC2CC1CN2Cc1coc2cc(Oc3nc4ncccc4s3)ccc12` (centres undefined), for which the IC50 in data set [1] is 7.3 nM; in [2], 21 nM.
Regarding `CC(=O)N1CC2CC1CN2Cc1cc2ccc(Oc3nc4ncccc4s3)cc2o1` (centres undefined), the IC50 in data set [1] worked out at 62 nM; in [2], 210 nM.
As for `CC(=O)NC1CCN(Cc2coc3cc(Oc4nc5ncccc5s4)ccc23)CC1`, the concentration for half-maximal inhibition (IC50) stood at 3.7 nM in data set [1] and 17 nM in data set [2].
On to `CC(=O)N1C[C@@H]2C[C@H]1CN2Cc1coc2cc(Oc3nc4ccccc4s3)ccc12`, for which the IC50 in data set [1] came out at 34 nM; in [2], 250 nM.
For `CC(=O)N1CC2CC1CN2Cc1cc2cc(Oc3nc4ncccc4s3)ccc2o1` (centres undefined), the figures for the IC50 in data set [1] and in data set [2] were 7 nM and 27 nM, respectively.
As for `c1cnc2nc(Oc3ccc4cc(CN5CCCCC5)oc4c3)sc2c1`, the IC50 is 51 nM in [1] and 140 nM in data set [2].
For `O=C(O)C1CCN(Cc2coc3cc(Oc4nc5ccccc5s4)ccc23)CC1`, the results for the IC50 in data set [1] and in [2] were 14 nM and 19 nM, respectively.
In the case of `O=C1CCCN1C1CCN(Cc2coc3cc(Oc4nc5ncccc5s4)ccc23)CC1`, the clearance in [3] is 11.7 mL/min/kg. Besides, the EC50 in the data set with Mus musculus [4] came out at 3 nM. For the same molecule, the figures for the IC50 in data set [2] and in data set [9] were 21 nM and 61 nM, respectively. Moreover, the half-life in [5] is 2.5 h. In data set [6], this molecule displayed a bioavailability of 61%. Besides, in the data set with Mus musculus [7], the 50% effective dose (ED50) was found to be 0.3 mg/kg. In the data set on Mus musculus [7], the inhibition entry was “Dose-dependent effect”. The Vd in data set [8] is 1.6 L/kg.
As for `O=C1CCCN1C1CCN(Cc2coc3cc(Oc4nc5ccccc5s4)ccc23)CC1`, the values for the IC50 in [1] and in data set [2] were 58 nM and 230 nM, respectively.
As to `CC(=O)N[C@H]1C[C@H]2CC[C@@H](C1)N2Cc1coc2cc(Oc3nc4ccccc4s3)ccc12`, the IC50 in data set [1] worked out at 7.3 nM; in data set [2], 69 nM.
In the same order, the values of `c1cnc2nc(Oc3ccc4oc(CN5CCCCC5)cc4c3)sc2c1` are 66 nM and 91 nM.
For `CC(=O)N1CC2CC1CN2Cc1cc2ccc(Oc3nc4cnccc4s3)cc2o1` (centres undefined), the IC50 in [1] was found to be 2370 nM.
Same read-out and setting: the result for `CC(=O)N1CC2CC1CN2Cc1cc2cc(Oc3nc4cccnc4s3)ccc2o1` (centres undefined) reads 340 nM; that for `CC(=O)N1CC2CC1CN2Cc1cc2ccc(Oc3nc4cccnc4s3)cc2o1` (centres undefined), 2130 nM.
As to `CC(=O)NC1CCN(Cc2coc3cc(Oc4nc5ccccc5s4)ccc23)CC1`, the values for the IC50 in [1] and in data set [2] were 26 nM and 100 nM, respectively.
Consider `CC(=O)N1C[C@@H]2C[C@H]1CN2Cc1coc2cc(Oc3nc4ncccc4s3)ccc12`, for which the figures for the half-inhibitory concentration (IC50) in data set [1] and in data set [2] were 7.3 nM and 21 nM, respectively.
In the same order, the values of `c1cnc2nc(Oc3ccc4c(CN5CCCCC5)coc4c3)sc2c1` are 4.6 nM and 21 nM.
Consider `c1cnc2nc(Oc3ccc4c(CN5CCOCC5)coc4c3)sc2c1`, for which the results for the IC50 in data set [1] and in data set [2] were 25 nM and 49 nM, respectively.
Take `c1ccc2sc(Oc3ccc4oc(CN5CCCCC5)cc4c3)nc2c1`: the half-inhibitory concentration (IC50) in data set [1] turned out to be 330 nM.
